The values that follow are results of earlier work, collected in US20050065219A1, “Treatment of demyelinating conditions” (priority 2003, published 2005).

Series [1] deals with brain membranes ([3H]dizocilpine site) (Homo sapiens, UniProt Q05586). The note with it: Chen et al. 1992.
The conditions of series [2]: clinical use for many years (Kornhuber et al. 1994).
For series [3], the target named is PCP and MK-801 binding sites of the NMDA receptor (Homo sapiens, UniProt Q05586). Particulars: postmortem human frontal cortex, at therapeutic concentrations (Kornhuber et al. 1989).
Series [4] concerns the target NMDA receptor channel (Homo sapiens, UniProt Q05586). Particulars: Bormann 1989.
The test system of series [5] is nicotinic acetylcholine receptors. Particulars: Masou et al. 1986.
The conditions of series [6]: rats (Keilhoff et al. 1992).
In series [7] the test system is 5-hydroxytryptamine 5-HT3 receptors. Particulars: Reiser et al. 1988.
In series [8] the test system is cortical and retinal neuron cultures. Particulars: cortical and retinal neuron cultures (Deyer et al. 1990).

Turning to `CC12CC3CC(C)(C1)CC(N)(C3)C2` [memantine, 1-amino-3,5-dimethyladamantane], the “[3H]dizocilpine binding to brain membranes” value in series [1] is on record as “inhibits”. Also, the “tolerability in clinical use” value in series [2] is given as “well tolerated”. In addition, in series [3], the “binding to PCP and MK-801 binding sites of the NMDA receptor” value was “binds”. Further, the “antagonism of the NMDA receptor channel” value in series [4] is recorded as “micromolar antagonist”. The “block of nicotinic acetylcholine receptors” value in series [5] is given as “blocks”. The “quinolic acid-induced hippocampal damage” value in series [6] was “prevents”. Moreover, the “block of 5-HT3 receptors” value in series [7] is recorded as “blocks”. Further, the “protection from toxicity of glutamate, NMDA and HIV-1 coat protein gp120” value in series [8] is recorded as “protects”.
